# Reference: patent US7745424B2, “Alkane diol derivatives as therapeutic agents for the treatment of bone conditions” (The Univeristy Court of the University of Aberdeen, priority 2001, dated 2010)
# Entries after “also recorded” stand apart in the source; their conditions may differ.
# Experiments:
# osteoclasts = assay: Murine co-culture system (osteoblast-bone marrow co-culture on dentine); assay type: cell-based, mice; conditions: for inhibition of osteoclast formation and activity: murine co-culture system
# Protocol: The first model system, the murine co-culture system, studies the formation of osteoclasts_from precursors present in the bone marrow. The number of osteoclasts and the amount of dentine resorption was measured.
# Osteoclast formation and activity was studied using an adaptation (see, e.g., van't Hof & Ralston, 1997) of the osteoblast-bone marrow co-culture assay originally described by Takahashi et al., 1988.
# Co-Culture Methods. Co-culture (see, e.g., Van't Hof et al., 1997) is a method to study the formation of osteoclasts from their precursors. In this assay, osteoblasts were obtained from the calvaria of 2-3 day old neonatal mice. These were plated on dentine, stimulated with 1,25-dihydroxy vitamin D3 to stimulate RANKL and M-CSF expression. Early osteoclast precursors were present in the bone marrow of adult mice. The bone marrow suspension was purified to remove the red blood cells and the remainder cultured on top of the osteoblast layer. The stimulatory factors then allowed the osteoclast precursors to differentiate into mature osteoclasts. At the end of the culture osteoclasts were identified by TRAcP staining and the resorption activity was measured in the same manner as for rabbit osteoclasts.
# Preparation of Dentine. The dentine was elephant ivory, preferred to bone because of its uniform surface, which facilitates easy visualisation of resorption pits. It was cut into slices of approximately 200 μm thickness using a Buehler Isomet low speed saw with a diamond wafering blade (series 15 HC). These slices were polished by hand, to a high degree, until one side was shiny. Out of these slices, discs were punched that fit the wells of a 96 well plate, using a paper puncher. Excess residues from the polish were removed by sonication. The discs were then stored in 70% ethanol until required. These discs were then dried and placed shiny side up in the wells of a 96 well plate. Cells were seeded onto the dentine. Following completion of the culture, these dentine slices were carefully removed from the plate and studied under the microscope.
# Osteoblast Isolation. Briefly, osteoblasts were isolated from the calvarial bones of 2-day-old mice by sequential collagenase digestion (type I collagenase, Sigma) and cultured in αMEM supplemented with 10% FCS (foetal calf serum) and penicillin and streptomycin at 37° C. in 5% CO2.
# More specifically, osteoblasts were obtained from a collagenase digestion of the calvaria (skull bones) of 2-3 day old neo-natal MF1 mice. At this stage in their development these are soft and easily removed. The calvaria from 5-6 mice were carefully dissected and washed in HBSS (Hank's balanced saline solution). The calvaria were placed in a 15 ml tube and shaken at 37° C. in 4 ml collagenase (10 mg/ml) for 10 minutes. This removes the excess unwanted tissue. The liquid was disposed of and a further 4 ml collagenase (10 mg/ml) added to the tube. The calvaria were then digested for a further 30 minutes. After this the supernatant (F1) was removed and retained. The calvaria were washed with a 2×4 ml PBS and this was added to F1. 4 ml EDTA (ethylene diamine tetraacetic acid) (4 mM in PBS) was then added to complex the calcium and allow further extraction of osteoblasts. This was shaken for 10 minutes at 37° C. The supernatant was removed and retained (F2). The calvaria were again washed with 2×4 ml HBSS and this was added to F2. The final 4 ml of collagenase (10 mg/ml) was added to the tube and this was again shaken at 37° C. for 30 minutes. […]
# [1] = test system: macrophage cell line J774; assay: MTT macrophage J774 viability assay; assay type: cell-based; conditions: MTT assay; for IC50: Mus musculus, macrophage J774 viability
# Protocol: MTT (3-(4,5-dimethylthiazol-2-yl)-2,5-diphenyl tetrazolium bromide) has an […] colour and is soluble in the medium used for cell culture. The mitochondrial enzyme succinate dehydrogenase acts upon MTT in living cells to produce the insoluble purple coloured formazan. The amount of formazan produced, as measured by UV/visible spectroscopy, is proportional to the number of viable cells.
# The medium was carefully removed using a needle without dislodging the crystal layer. 100 μL acidified isopropanol (4 M HCl 1:100 v/v in isopropanol) was added to each well and the purple crystals allowed to dissolve. The absorbance was measured in a plate reader at 540 nm, with 690 nm as reference. The controls were a deep purple colour, indicating a high number of live cells.
# Addition of Compounds. […] These stock solutions were then diluted 100× in culture medium.
# rabbit osteoclasts = assay: Rabbit osteoclast culture system; assay type: cell-based; conditions: for rabbit osteoclast numbers / resorption activity: rabbit osteoclast culture on dentine
# Description: The second model system was the rabbit osteoclast system, where mature, functional osteoclasts were isolated from the long bones of rabbits and cultured on dentine slices.
# Osteoclast Isolation. Osteoclasts were isolated from the long bones of 2-10 day-old rabbits, as described previously (see, e.g., reference Coxon et al., 2000). All 4 limbs were removed from the rabbits and placed in ice-cold PBS. Soft tissue and cartilage were removed and the bones transferred into fresh PBS. The bones were minced in aMEM (without FCS), using a scalpel. All the medium and fragments were transferred to a 50 ml tube, vortexed for 3×10 seconds and left to stand for 1 minute. The supernatant was removed and made up to 50 ml/rabbit with medium and FCS so as to give a final concentration of 10% FCS.
# Osteoclast Plating. The cells were plated onto dentine slices in a 96 well plate, at 100 μL/well (medium: αMEM supplemented with 10% FCS and penicillin and streptomycin) and left for 4 hours to allow adherence to the dentine. After this period the medium was removed, and with it the non-adherent cells. Fresh medium was then added. The remaining population was highly enriched in osteoclasts.
# Culturing. At this point, test compounds to be studied were added and the cells cultured at 37° C. in 5% CO2 for 48 hours. At the end of the culture, the osteoclasts were identified by staining for tartrate-resistant acid phosphatase (TRAcP) staining. A good number of osteoclasts in the controls was 100-200.
# The resorption pit area was quantified by reflected light microscopy as described previously (see, e.g., van't Hof & Ralston, 1997) and again the results expressed as a % of the control values.
# [2] = test system: macrophage cell line J774; assay: Alamar Blue macrophage J774 viability assay; conditions: Mus musculus, J774, 72 h, read-out: IC50 (μM) Alamar Blue
structure (smiles),measurement,setting,value
"OCCCCO [1,4-butanediol, reference compound]",inhibition of osteoclast formation and activity,osteoclasts,no detected effect
"O=C(OCCCCCCO)c1ccc(-c2ccccc2)cc1 [ABD-0054, 1,6-Hexanediol mono(biphenyl-4-carboxylic acid)Ester]","macrophage J774 viability, activity in words",[1]; range of concentrations (FIGS. 4-7),next most active
same,IC50,[1],35 µM
same,inhibition of osteoclast formation and activity,osteoclasts,significantly inhibited
same,rabbit osteoclast numbers,rabbit osteoclasts,significantly reduced
same,resorption activity,rabbit osteoclasts,significantly reduced
"O=C(OCCCCO)c1ccc(-c2ccccc2)cc1 [ABD-0056, 1,4-Butanediol mono(biphenyl-4-carboxylic acid)Ester]",IC50,[1],3.5 µM
same,number of murine osteoclasts (osteoclast precursors),"osteoclasts; compound added at Day 2, removed at Day 4, terminated at Day 10 (FIG. 15)",even more effective against osteoclast precursor formation than against mature osteoclasts
same,resorption pit area (osteoclast precursors),"osteoclasts; compound added at Day 2, removed at Day 4, terminated at Day 10, all concentrations tested (FIG. 16)",virtually no resorption
same,inhibition of osteoclast formation and activity,osteoclasts,significantly inhibited; also recorded: potent inhibitor
same,concentrations showing a significant effect,rabbit osteoclasts; osteoclast numbers and resorption activity,≥ 10 µM
same,rabbit osteoclast numbers,rabbit osteoclasts,significantly reduced
same,resorption activity,rabbit osteoclasts,significantly reduced
same,IC50,[2],18 µM
